From patent US11578061B2, “Inhibitors of LRRK2 kinase” (Halia Therapeutics, Inc., priority 2021, dated 2023) come the findings set out here.

Structures are written as SMILES.

The target of the assay is recombinant human LRRK2 (catalytic domain only [amino acids 970-2527], GST-tagged) (Homo sapiens (Human), UniProt Q5S007). The experiment in a line: LRRK2 Enzymatic Assay. The class given is biochemical. The note with it: LRRKtide substrate, [32P]-ATP. The gist of the method: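 Radiometric P81 filter-binding read-out of [32P]-ATP transfer to LRRKtide (20 μM) by 30 nM GST-LRRK2 970-2527, 2 h at room temperature after 20 min compound preincubation (10 μM–0.5 nM, 1% DMSO). IC50 derived from % remaining activity versus DMSO.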
Chain of recombinant human LRRK2 (catalytic domain only [amino acids 970-2527], GST-tagged) (Q5S007 970-2527): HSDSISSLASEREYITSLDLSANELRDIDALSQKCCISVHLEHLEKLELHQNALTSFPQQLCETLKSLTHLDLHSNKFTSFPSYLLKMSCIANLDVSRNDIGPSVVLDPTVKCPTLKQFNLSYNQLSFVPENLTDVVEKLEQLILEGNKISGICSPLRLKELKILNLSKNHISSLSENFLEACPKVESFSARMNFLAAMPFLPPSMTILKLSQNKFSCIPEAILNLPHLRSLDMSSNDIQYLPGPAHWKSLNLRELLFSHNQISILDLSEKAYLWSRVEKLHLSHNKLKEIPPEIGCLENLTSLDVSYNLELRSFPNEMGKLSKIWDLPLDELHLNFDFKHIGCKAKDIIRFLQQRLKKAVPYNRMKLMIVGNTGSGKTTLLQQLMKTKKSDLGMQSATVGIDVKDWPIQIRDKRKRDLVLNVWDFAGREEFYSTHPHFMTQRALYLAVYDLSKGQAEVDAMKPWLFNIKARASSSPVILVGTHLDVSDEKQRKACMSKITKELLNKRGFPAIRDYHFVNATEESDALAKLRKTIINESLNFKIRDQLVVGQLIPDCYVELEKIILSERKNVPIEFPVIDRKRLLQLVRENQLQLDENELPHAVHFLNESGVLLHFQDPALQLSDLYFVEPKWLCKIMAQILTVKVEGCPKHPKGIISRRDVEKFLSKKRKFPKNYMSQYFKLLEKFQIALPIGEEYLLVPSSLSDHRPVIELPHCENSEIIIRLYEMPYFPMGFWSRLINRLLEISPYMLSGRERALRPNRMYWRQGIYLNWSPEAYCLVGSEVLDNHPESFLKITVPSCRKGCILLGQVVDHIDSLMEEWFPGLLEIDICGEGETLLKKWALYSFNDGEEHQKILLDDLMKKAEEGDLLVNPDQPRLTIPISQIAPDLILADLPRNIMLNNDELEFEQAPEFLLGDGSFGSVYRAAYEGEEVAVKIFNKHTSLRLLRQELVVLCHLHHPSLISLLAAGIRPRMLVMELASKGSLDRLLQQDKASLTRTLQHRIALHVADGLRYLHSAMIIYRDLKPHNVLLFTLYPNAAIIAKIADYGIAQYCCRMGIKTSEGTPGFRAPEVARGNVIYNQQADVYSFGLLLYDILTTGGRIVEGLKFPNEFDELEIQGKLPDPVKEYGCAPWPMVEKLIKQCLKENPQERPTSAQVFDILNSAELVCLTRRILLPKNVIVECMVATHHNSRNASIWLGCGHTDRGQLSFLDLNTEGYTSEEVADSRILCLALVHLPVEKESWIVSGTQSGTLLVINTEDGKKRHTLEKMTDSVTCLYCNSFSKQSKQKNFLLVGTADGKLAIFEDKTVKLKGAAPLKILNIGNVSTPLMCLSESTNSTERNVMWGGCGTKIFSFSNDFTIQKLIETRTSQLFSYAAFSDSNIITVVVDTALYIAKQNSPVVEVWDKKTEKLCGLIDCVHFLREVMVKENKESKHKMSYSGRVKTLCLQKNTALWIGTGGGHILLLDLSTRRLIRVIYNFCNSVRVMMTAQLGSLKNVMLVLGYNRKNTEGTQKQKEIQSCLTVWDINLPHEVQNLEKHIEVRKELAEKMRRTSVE
With `Cc1nn(C(C)(C)C#N)cc1Nc1ncc(Cl)c(OCC2CC(F)(F)C2)n1` [Example 154, 2-(4-((5-chloro-4-((3,3-difluorocyclobutyl)methoxy)pyrimidin-2-yl)amino)-3-methyl-1H-pyrazol-1-yl)-2-methylpropanenitrile], the IC50 was less than 0.05 µM. Turning to `CCO[C@H]1CC[C@@H](COc2nc(Nc3ccc(N4CCOCC4)cc3)ncc2F)CC1` [Example 275, 4-(((1S,4S)-4-ethoxycyclohexyl)methoxy)-5-fluoro-N-(4-morpholinophenyl)pyrimidin-2-amine], the concentration for half-maximal inhibition (IC50) lay within 0.05 to 0.2 µM. `CC(=O)N[C@H]1CC[C@H](COc2nc(Nc3cnn(C(F)F)c3C)ncc2F)CC1` [Example 200, N-((1R,4R)-4-(((2-((1-(difluoromethyl)-5-methyl-1H-pyrazol-4-yl)amino)-5-fluoropyrimidin-4-yl)oxy)methyl)cyclo-hexyl)acetamide]: the 50% inhibitory concentration (IC50) is less than 0.05 µM. With `Cc1nn(C(C)(C)C#N)cc1Nc1ncc(F)c(OC[C@@H]2CCC[C@@H](O)C2)n1` [Example 250, 2-(4-((5-fluoro-4-(((1R,3R)-3-hydroxycyclohexyl)methoxy)pyrimidin-2-yl)amino)-3-methyl-1H-pyrazol-1-yl)-2-methylpropanenitrile], the IC50 is less than 0.05 µM. Next, `CC(=O)N1CCC(COc2nc(Nc3ccc(N4C[C@@H](C)O[C@@H](C)C4)cc3)ncc2F)C(F)C1` (single isomer, unassigned) [Example 174]: 0.2 to 0.4 µM; `Cc1nn(C(C)(C)C#N)cc1Nc1nccc(OCC2CCC(O)CC2)n1` (stereo not drawn) [Example 119, 2-(4-((4-((4-hydroxycyclohexyl)methoxy)pyrimidin-2-yl)amino)-3-methyl-1H-pyrazol-1-yl)-2-methylpropanenitrile]: 0.2 to 0.4 µM.

`Cc1nn(C(C)(C)C#N)cc1Nc1ncc(F)c(OCC2CCC(F)(F)CC2)n1` [Example 270, 2-(4-((4-((4,4-difluorocyclohexyl)methoxy)-5-fluoropyrimidin-2-yl)amino)-3-methyl-1H-pyrazol-1-yl)-2-methylpropanenitrile]: the concentration for half-maximal inhibition (IC50) lay in the range of 0.05 to 0.2 µM. As to `C[C@@H]1CN(c2ccc(Nc3ncc(Cl)c(OCC4CCC(O)CC4)n3)cc2)C[C@H](C)O1` (stereo partly drawn) [Example 120, 4-(((5-chloro-2-((4-((2S,6R)-2,6-dimethylmorpholino)phenyl)amino)pyrimidin-4-yl)oxy)methyl)cyclohexan-1-ol], the IC50 was less than 0.05 µM. Turning to `Cc1nn(C(C)(C)C#N)cc1Nc1nccc(OCC2CCC(O)C2)n1` (stereo not drawn) [Example 130, 2-(4-((4-((3-hydroxycyclopentyl)methoxy)pyrimidin-2-yl)amino)-3-methyl-1H-pyrazol-1-yl)-2-methylpropanenitrile], the IC50 fell in the range of 0.05 to 0.2 µM. Take `CC(=O)N1CCC(COc2nc(Nc3ccc(N4CCOCC4)cc3)ncc2F)C(F)C1` (single isomer, unassigned) [Example 172, 1-(3-fluoro-4-(((5-fluoro-2-((4-morpholinophenyl)amino)pyrimidin-4-yl)oxy)methyl)piper-idin-1-yl)ethan-1-one]: the 50% inhibitory concentration (IC50) lay within 0.05 to 0.2 µM.

As for `O[C@H]1CC[C@H](COc2nc(Nc3cnn(C(F)(F)F)c3)ncc2F)CC1` [Example 222, (1R,4R)-4-(((5-fluoro-2-((1-(trifluoromethyl)-1H-pyrazol-4-yl)amino)pyrimidin-4-yl)oxy)methyl)cyclohexan-1-ol], the IC50 was greater than 0.4 µM. The figure for `Cc1nn(C(C)(C)C#N)cc1Nc1ncc(F)c(OC[C@H]2CC[C@@H](O)CC2)n1` [Example 126, 2-(4-((5-fluoro-4-(((1S,4S)-4-hydroxycyclohexyl)methoxy)pyrimidin-2-yl)amino)-3-methyl-1H-pyrazol-1-yl)-2-methylpropanenitrile] is less than 0.05 µM. The figure for `Cc1nn(C(C)(C)C#N)cc1Nc1ncc(F)c(OC[C@H]2CC[C@@H](O)[C@H](F)C2)n1` [Example 259] is less than 0.05 µM. For `Cc1nn(C(C)(C)C#N)cc1Nc1ncc(F)c(OCC2CC(C#N)C2)n1` (single isomer, unassigned) [Example 290, 3-(((2-((1-(2-cyanopropan-2-yl)-3-methyl-1H-pyrazol-4-yl)amino)-5-fluoropyrimidin-4-yl)oxy)methyl)cyclobutane-1-carbonitrile], the IC50 was less than 0.05 µM. Regarding `O=C(N[C@H]1CC[C@H](COc2ccnc(Nc3ccc(N4CCOCC4)cc3)n2)CC1)C(F)(F)F` [Example 98, 2,2,2-trifluoro-N-((1R,4R)-4-(((2-((4-morpholino-phenyl)amino)pyrimidin-4-yl)oxy)methyl)cyclohexyl) acetamide], the IC50 was in the range of 0.05 to 0.2 µM.

For the compound `Cn1ccc(Nc2nccc(OC[C@H]3CC[C@H](N)CC3)n2)n1` [Example 4, 4-(((1R,4R)-4-aminocyclohexyl)methoxy)-N-(1-methyl-1H-pyrazol-3-yl)pyrimidin-2-amine], the 50% inhibitory concentration (IC50) was in the range of 0.05 to 0.2 µM. Regarding `CC(C)n1cc(Nc2ncc(F)c(OC[C@H]3CC[C@H](C(C)(C)O)CC3)n2)cn1` [Example 255, 2-((1R,4R)-4-(((5-fluoro-2-((1-isopropyl-1H-pyrazol-4-yl)amino)pyrimidin-4-yl)oxy)methyl)cyclohexyl)propan-2-ol], the IC50 lay in the range of 0.05 to 0.2 µM. `C[C@@H]1CN(c2ccc(Nc3ncc(C4CC4)c(OCC4CCC(O)CC4)n3)cc2)C[C@H](C)O1` (stereo partly drawn) [Example 129, 4-(((5-cyclopropyl-2-((4-((2S,6R)-2,6-dimethylmorpholino)phenyl)amino)pyrimidin-4-yl)oxy)methyl)cyclohexan-1-ol]: the IC50 was less than 0.05 µM.

`FC(F)CN[C@H]1CC[C@H](COc2ccnc(Nc3ccc(N4CCOCC4)cc3)n2)CC1` [Example 103, 4-(((1R,4R)-4-((2,2-difluoro-ethyl)amino)cyclohexyl)methoxy)-N-(4-morpholino-phenyl) pyrimidin-2-amine]: the IC50 was less than 0.05 µM. `CN[C@H]1CC[C@H](COc2nc(Nc3cn(C4CC(C#N)C4)nc3C)ncc2Cl)CC1` (stereo partly drawn) [Example 40, 3-(4-((5-chloro-4-(((1R,4R)-4-(methylamino)cyclo-hexyl)methoxy)py-rimidin-2-yl)amino)-3-methyl-1H-pyrazol-1-yl)cyclobutane-1-carbonitrile]: the IC50 is less than 0.05 µM. In the case of `Cc1nn(C(C)(C)C#N)cc1Nc1ncc(C#N)c(OCC2CC(F)(F)C2)n1` [Example 155, 2-((1-(2-cyanopropan-2-yl)-3-methyl-1H-pyrazol-4-yl)amino)-4-((3,3-difluorocyclobutyl)methoxy)pyrimidine-5-carbonitrile], the IC50 fell in the range of 0.05 to 0.2 µM. `O[C@@H]1CC[C@H](COc2nc(Nc3ccc(N4CCOCC4)cc3)ncc2F)C[C@H]1F` [Example 258, (1R,2R,4S)-2-fluoro-4-(((5-fluoro-2-((4-morpholinophenyl)amino)pyrimidin-4-yl)oxy)methyl)cyclohexan-1-ol]: the IC50 lay within 0.05 to 0.2 µM.

On to `CC(=O)N[C@H]1CC[C@H](COc2nc(Nc3ccc(N4CCOCC4)cc3)ncc2C2CC2)CC1` [Example 88, N-((1R,4R)-4-(((5-cyclopropyl-2-((4-morpholinophenyl)amino)pyrimidin-4-yl)oxy)methyl)cyclo-hexyl)acetamide], for which the IC50 was in the range of 0.05 to 0.2 µM.

Turning to `CC(=O)N1CCC(COc2nc(Nc3cn(C(C)(C)C#N)nc3C)ncc2Cl)C(F)(F)C1` (stereo not drawn) [Example 96, 2-(4-((4-((1-acetyl-3,3-difluoropiperidin-4-yl)methoxy)-5-chloropyrimidin-2-yl)amino)-3-methyl-1H-pyrazol-1-yl)-2-methylpropanenitrile], the IC50 is less than 0.05 µM.

As to `COCCn1ncc(Nc2ncc(F)c(OC[C@H]3CC[C@H](NC(C)=O)CC3)n2)c1Cl` [Example 205, N-((1R,4R)-4-(((2-((5-chloro-1-(2-methoxyethyl)-1H-pyrazol-4-yl)amino)-5-fluoropyrimidin-4-yl)oxy)methyl)cyclo-hexyl)acetamide], the 50% inhibitory concentration (IC50) is less than 0.05 µM.

Take `C[C@@H]1CN(c2ccc(Nc3nccc(OCC4CCC(CO)CC4)n3)cc2)C[C@H](C)O1` (stereo partly drawn) [Example 141, (4-(((2-((4-((2R,6S)-2,6-dimethylmorpholino)phenyl)amino)pyrimidin-4-yl)oxy)methyl)cyclohexyl)methanol]: the 50% inhibitory concentration (IC50) fell in the range of 0.05 to 0.2 µM. With `O=C(N[C@H]1CC[C@H](COc2nc(Nc3ccc(N4CCOCC4)cc3)ncc2F)CC1)C(F)(F)F` [Example 99, 2,2,2-trifluoro-N-((1R,4R)-4-(((5-fluoro-2-((4-morpholino-phenyl)amino)pyrimidin-4-yl)oxy)methyl)cyclohexyl) acetamide], the half-maximal inhibitory concentration (IC50) was less than 0.05 µM.

For the compound `CNC1(COc2nc(Nc3ccc(N4CCOCC4)cc3)ncc2Cl)CC1` [Example 54, 5-chloro-4-((1-(methylamino)cyclo-propyl)methoxy)-N-(4-morpholinophenyl)py-rimidin-2-amine], the half-maximal inhibitory concentration (IC50) was in the range of 0.2 to 0.4 µM. In the case of `O=S1(=O)CCC(COc2nc(Nc3ccc(N4CCOCC4)cc3)ncc2F)CC1` [Example 287, 4-(((5-fluoro-2-((4-morpholinophenyl)amino)pyrimidin-4-yl)oxy)methyl)tetrahydro-2H-thiopyran 1,1-dioxide], the concentration for half-maximal inhibition (IC50) was greater than 0.4 µM. Consider `CC(=O)N[C@H]1CC[C@H](COc2ccnc(Nc3cnn(C(C)C)c3)n2)CC1` [Example 76, N-((1R,4R)-4-(((2-((1-isopropyl-1H-pyrazol-4-yl)amino)pyrimidin-4-yl)oxy)methyl)cyclo-hexyl)acetamide], for which the IC50 was 0.05 to 0.2 µM.

`CC(=O)N1CCC(COc2nc(Nc3ccc(N4C[C@@H](C)O[C@@H](C)C4)cc3)ncc2F)C(F)C1` (single isomer, unassigned) [Example 175]: the IC50 is 0.2 to 0.4 µM.

For the compound `COc1cnc(Nc2ccc(N3CCOCC3)cc2)nc1OC[C@H]1CC[C@H](CN)CC1` [Example 13, 4-(((1R,4R)-4-(aminomethyl)cyclohexyl)methoxy)-5-methoxy-N-(4-morpholinophenyl) pyrimidin-2-amine], the half-inhibitory concentration (IC50) was less than 0.05 µM.

Turning to `CC(=O)NC1CCC(C)(COc2ccnc(Nc3ccc(N4C[C@@H](C)O[C@@H](C)C4)cc3)n2)CC1` (stereo partly drawn) [Example 90, N-(4-(((2-((4-((2S,6R)-2,6-dimethylmorpholino)phenyl)amino)py-rimidin-4-yl)oxy)methyl)-4-methylcyclohexyl) acetamide], the IC50 was greater than 0.4 µM.
